Laboratory results taken from ChEMBL document CHEMBL4811242, “Mechanistic selectivity investigation and 2D-QSAR study of some new antiproliferative pyrazoles and pyrazolopyridines as potential CDK2 inhibitors” (Eur J Med Chem, 2021).

The molecules below were run on MCF7 (assay: Antiproliferative activity against human MCF7 cells assessed as inhibition of cell growth after 48 hrs by MTT assay). Conditions: MCF7, 48 h.
Assay type: functional, cell-based

Point of comparison: N#Cc1c(-c2ccccc2)nc2c(c(-c3ccccc3)nn2-c2ccccc2)c1-c1ccc(N2CCCCC2)cc1, IC50 27 µM. Against it:
- N#Cc1c(-c2ccc(Cl)cc2)nc2c(c(-c3ccccc3)nn2-c2ccccc2)c1-c1ccc(N2CCOCC2)cc1 — 7.4-fold lower, 3.65 µM
- CN1CCN(c2ccc(-c3c(C#N)c(-c4ccc(Cl)cc4)nc4c3c(-c3ccccc3)nn4-c3ccccc3)cc2)CC1 — 10-fold lower, 2.71 µM
- COc1ccc(-c2nc3c(c(-c4ccccc4)nn3-c3ccccc3)c(-c3ccc(N4CCCCC4)cc3)c2C#N)cc1 — 9.8-fold lower, 2.76 µM
- COc1ccc(-c2ccnc3c2c(-c2ccccc2)nn3-c2ccccc2)cc1 — within 1.5-fold, 28.7 µM
- c1ccc(-c2nn(-c3ccccc3)c3nccc(-c4cccs4)c23)cc1 — within 1.5-fold, 39.3 µM
- O=C(C=CNc1cc(-c2ccccc2)nn1-c1ccccc1)c1ccc(F)cc1 — 2.9-fold lower, 9.18 µM
- Cc1ccc(C(=O)C=CNc2cc(-c3ccccc3)nn2-c2ccccc2)cc1 — within 1.5-fold, 30.2 µM
- Cc1ccc(-c2ccnc3c2c(-c2ccccc2)nn3-c2ccccc2)cc1 — 4.8-fold lower, 5.59 µM
- Clc1ccc(-c2ccnc3c2c(-c2ccccc2)nn3-c2ccccc2)cc1 — 2.3-fold higher, 61.1 µM
- O=C(C=CNc1cc(-c2ccccc2)nn1-c1ccccc1)c1ccc(Br)cc1 — within 1.5-fold, 21.7 µM
- O=C(C=CNc1cc(-c2ccccc2)nn1-c1ccccc1)c1ccc(Cl)cc1 — 3.3-fold lower, 8.07 µM
- Brc1ccc(-c2ccnc3c2c(-c2ccccc2)nn3-c2ccccc2)cc1 — 2-fold lower, 13.3 µM

These molecules were tested on HepG2 (assay: Antiproliferative activity against human HepG2 cells assessed as inhibition of cell growth after 48 hrs by MTT assay). Conditions: HepG2, 48 h.
Assay type: functional, cell-based

Point of comparison: Brc1ccc(-c2ccnc3c2c(-c2ccccc2)nn3-c2ccccc2)cc1, IC50 49.9 µM. Against it:
- N#Cc1c(-c2ccc(Cl)cc2)nc2c(c(-c3ccccc3)nn2-c2ccccc2)c1-c1ccc(N2CCOCC2)cc1 — 2.3-fold lower, 21.5 µM
- CN1CCN(c2ccc(-c3c(C#N)c(-c4ccc(Cl)cc4)nc4c3c(-c3ccccc3)nn4-c3ccccc3)cc2)CC1 — 3.4-fold lower, 14.6 µM
- COc1ccc(-c2nc3c(c(-c4ccccc4)nn3-c3ccccc3)c(-c3ccc(N4CCCCC4)cc3)c2C#N)cc1 — 4-fold lower, 12.5 µM
- COc1ccc(-c2ccnc3c2c(-c2ccccc2)nn3-c2ccccc2)cc1 — 7.6-fold lower, 6.59 µM
- c1ccc(-c2nn(-c3ccccc3)c3nccc(-c4cccs4)c23)cc1 — within 1.5-fold, 39.3 µM
- O=C(C=CNc1cc(-c2ccccc2)nn1-c1ccccc1)c1ccc(F)cc1 — within 1.5-fold, 59.9 µM
- N#Cc1c(-c2ccccc2)nc2c(c(-c3ccccc3)nn2-c2ccccc2)c1-c1ccc(N2CCCCC2)cc1 — 1.6-fold lower, 30.9 µM
- Cc1ccc(C(=O)C=CNc2cc(-c3ccccc3)nn2-c2ccccc2)cc1 — 6.8-fold lower, 7.32 µM
- Cc1ccc(-c2ccnc3c2c(-c2ccccc2)nn3-c2ccccc2)cc1 — 4.7-fold lower, 10.7 µM
- Clc1ccc(-c2ccnc3c2c(-c2ccccc2)nn3-c2ccccc2)cc1 — within 1.5-fold, 61.1 µM
- O=C(C=CNc1cc(-c2ccccc2)nn1-c1ccccc1)c1ccc(Br)cc1 — 5.7-fold lower, 8.81 µM
- O=C(C=CNc1cc(-c2ccccc2)nn1-c1ccccc1)c1ccc(Cl)cc1 — within 1.5-fold, 41.2 µM

These molecules were tested against CDK2/Cyclin A2 (Homo sapiens, UniProt P24941) (assay: Inhibition of CDK2/Cyclin A2 (unknown origin) after 10 mins by ADP-Glo reagent based assay). Conditions: not given.
Assay type: protein-complex assay

Point of comparison: CN1CCN(c2ccc(-c3c(C#N)c(-c4ccc(Cl)cc4)nc4c3c(-c3ccccc3)nn4-c3ccccc3)cc2)CC1, IC50 0.129 µM. Against it:
- N#Cc1c(-c2ccc(Cl)cc2)nc2c(c(-c3ccccc3)nn2-c2ccccc2)c1-c1ccc(N2CCOCC2)cc1 — 5-fold higher, 0.644 µM
- COc1ccc(-c2nc3c(c(-c4ccccc4)nn3-c3ccccc3)c(-c3ccc(N4CCCCC4)cc3)c2C#N)cc1 — 1.5-fold lower, 0.0851 µM
- COc1ccc(-c2ccnc3c2c(-c2ccccc2)nn3-c2ccccc2)cc1 — 2.1-fold higher, 0.27 µM
- c1ccc(-c2nn(-c3ccccc3)c3nccc(-c4cccs4)c23)cc1 — 2.3-fold lower, 0.0568 µM
- O=C(C=CNc1cc(-c2ccccc2)nn1-c1ccccc1)c1ccc(F)cc1 — within 1.5-fold, 0.133 µM
- N#Cc1c(-c2ccccc2)nc2c(c(-c3ccccc3)nn2-c2ccccc2)c1-c1ccc(N2CCCCC2)cc1 — 2.6-fold higher, 0.329 µM
- Cc1ccc(C(=O)C=CNc2cc(-c3ccccc3)nn2-c2ccccc2)cc1 — 2-fold lower, 0.0632 µM
- Cc1ccc(-c2ccnc3c2c(-c2ccccc2)nn3-c2ccccc2)cc1 — 1.6-fold lower, 0.0819 µM
- Clc1ccc(-c2ccnc3c2c(-c2ccccc2)nn3-c2ccccc2)cc1 — 3-fold higher, 0.386 µM
- O=C(C=CNc1cc(-c2ccccc2)nn1-c1ccccc1)c1ccc(Br)cc1 — 4-fold higher, 0.517 µM
- O=C(C=CNc1cc(-c2ccccc2)nn1-c1ccccc1)c1ccc(Cl)cc1 — within 1.5-fold, 0.122 µM
- Brc1ccc(-c2ccnc3c2c(-c2ccccc2)nn3-c2ccccc2)cc1 — 1.6-fold lower, 0.0807 µM
